In brackets after ≈: the same amount, converted by molar mass. Activity calls are given as the source filed them. The calls are words filed in the database; no cut-off is given here.
Key:
[1] = system: Candida albicans; test: Antifungal activity against Candida albicans SC5314 by microdilution method; type: functional
[2] = system: Candida albicans; test: Antifungal activity against Candida albicans CA23 by microdilution method; type: functional
[3] = system: Candida albicans; test: Antifungal activity against Candida albicans SC5314 in presence of fluconazole by microdilution method; type: functional
[4] = system: Candida albicans; test: Antifungal activity against Candida albicans CA23 in presence of fluconazole by microdilution method; type: functional
[5] = system: Candida albicans; test: Antifungal activity against Candida albicans SC5314 assessed as fractional inhibitory concentration index in presence of fluconazole by microdilution method; type: functional
[6] = system: Candida albicans; test: Antifungal activity against Candida albicans CA23 assessed as fractional inhibitory concentration index in presence of fluconazole by microdilution method; type: functional
[7] = system: Candida albicans; test: Antifungal activity against Candida albicans ATCC14053 by microdilution method; type: functional
[8] = system: Candida albicans; test: Antifungal activity against Candida albicans CA187 by microdilution method; type: functional
[9] = system: Candida albicans; test: Antifungal activity against Candida albicans CA800 by microdilution method; type: functional
[10] = system: Candida albicans; test: Antifungal activity against Candida albicans CA3816 by microdilution method; type: functional
[11] = system: Candida albicans; test: Antifungal activity against Candida albicans CA3511 by microdilution method; type: functional
[12] = system: Candida albicans; test: Antifungal activity against Candida albicans CA5408 by microdilution method; type: functional
[13] = system: Candida albicans; test: Antifungal activity against Candida albicans CA558 by microdilution method; type: functional
[14] = system: Candida albicans; test: Antifungal activity against Candida albicans CA602 by microdilution method; type: functional
[15] = system: Candida albicans; test: Antifungal activity against Candida albicans ATCC14053 in presence of fluconazole by microdilution method; type: functional
[16] = system: Candida albicans; test: Antifungal activity against Candida albicans CA187 in presence of fluconazole by microdilution method; type: functional
[17] = system: Candida albicans; test: Antifungal activity against Candida albicans CA800 in presence of fluconazole by microdilution method; type: functional
[18] = system: Candida albicans; test: Antifungal activity against Candida albicans CA3816 in presence of fluconazole by microdilution method; type: functional
[19] = system: Candida albicans; test: Antifungal activity against Candida albicans CA3511 in presence of fluconazole by microdilution method; type: functional
[20] = system: Candida albicans; test: Antifungal activity against Candida albicans CA5408 in presence of fluconazole by microdilution method; type: functional
[21] = system: Candida albicans; test: Antifungal activity against Candida albicans CA558 in presence of fluconazole by microdilution method; type: functional
[22] = system: Candida albicans; test: Antifungal activity against Candida albicans CA602 in presence of fluconazole by microdilution method; type: functional
[23] = system: Candida albicans; test: Antifungal activity against Candida albicans ATCC14053 assessed as fractional inhibitory concentration index in presence of fluconazole by microdilution method; type: functional
[24] = system: Candida albicans; test: Antifungal activity against Candida albicans CA187 assessed as fractional inhibitory concentration index in presence of fluconazole by microdilution method; type: functional
[25] = system: Candida albicans; test: Antifungal activity against Candida albicans CA800 assessed as fractional inhibitory concentration index in presence of fluconazole by microdilution method; type: functional
[26] = system: Candida albicans; test: Antifungal activity against Candida albicans CA3816 assessed as fractional inhibitory concentration index in presence of fluconazole by microdilution method; type: functional
[27] = system: Candida albicans; test: Antifungal activity against Candida albicans CA3511 assessed as fractional inhibitory concentration index in presence of fluconazole by microdilution method; type: functional
[28] = system: Candida albicans; test: Antifungal activity against Candida albicans CA5408 assessed as fractional inhibitory concentration index in presence of fluconazole by microdilution method; type: functional
[29] = system: Candida albicans; test: Antifungal activity against Candida albicans CA558 assessed as fractional inhibitory concentration index in presence of fluconazole by microdilution method; type: functional
[30] = system: Candida albicans; test: Antifungal activity against Candida albicans CA602 assessed as fractional inhibitory concentration index in presence of fluconazole by microdilution method; type: functional
[31] = system: Candida albicans; test: Antifungal activity against Candida albicans at 2 ug/mL in presence of 1 ug/mL fluconazole by Time-kill curve assay; type: functional, organism-based; settings: dose 2.0 µg/ml
[32] = system: Candida albicans; test: Antifungal activity against Candida albicans ATCC14053 assessed as decrease in number of hyphae at 2 ug/mL in presence of 1 ug/mL fluconazole by microscopic analysis; type: functional, organism-based; settings: dose 2.0 µg/ml
[33] = system: Candida albicans; test: Antifungal activity against Candida albicans ATCC14053 assessed as shortened length of hyphae at 2 ug/mL in presence of 1 ug/mL fluconazole by microscopic analysis; type: functional, organism-based; settings: dose 2.0 µg/ml
[34] = system: Candida albicans; test: Induction of ROS production in Candida albicans at 2 ug/ml in presence of 1 ug/mL fluconazole by DCFH-DA assay; type: functional; settings: dose 2.0 µg/ml
[35] = system: Candida albicans; test: Induction of mitochondrial membrane potential loss in Candida albicans at 2 ug/ml after 16 hrs in presence of 1 ug/mL fluconazole by JC-1 staining based fluorescence microplate reader; type: functional, organism-based; settings: dose 2.0 µg/ml
[36] = system: Candida albicans; test: Induction of mitochondrial membrane potential loss in Candida albicans at 2 ug/ml after 16 hrs by JC-1 staining based fluorescence microplate reader; type: functional, organism-based; settings: dose 2.0 µg/ml
[37] = system: Candida albicans; test: Effect on cell membrane permeability ib Candida albicans assessed as cell membrane damage at 2 ug/ml measured after 8 to 24 hrs in presence of 1 ug/mL fluconazole by PI staining based fluorescence analysis; type: functional; settings: dose 2.0 µg/ml, time 8-24 hrs
[38] = Cytotoxicity against PBMC (unknown origin) by MTT assay; type: toxicity, cell-based
[39] = Cytotoxicity against human 16HBE by MTS assay; type: toxicity, cell-based; settings: 16HBE14o- cells
[40] = system: Candida albicans; test: Induction of mitochondrial membrane potential loss in Candida albicans at 1 ug/ml after 16 hrs by JC-1 staining based fluorescence microplate reader; type: functional, organism-based; settings: dose 1.0 µg/ml

Oc1c(Cl)cccc1C(c1c[nH]c2ccccc12)c1c[nH]c2ccccc12
MIC80 [1]: > 200 µg/mL | MIC80 [2]: > 200 µg/mL | MIC80 [3]: 1.31 µg/mL | MIC80 [4]: 5.82 µg/mL | fractional inhibitory concentration index (FICI) [5]: 0.05 | fractional inhibitory concentration index (FICI) [6]: 0.02

Oc1ccc(O)c(C(c2c[nH]c3ccccc23)c2c[nH]c3ccccc23)c1
MIC80 [1]: 32.1 µg/mL (≈ 90.5 µM) | MIC80 [2]: 5.91 µg/mL (≈ 16.7 µM) | MIC80 [3]: 1.05 µg/mL | MIC80 [4]: 5.7 µg/mL | fractional inhibitory concentration index (FICI) [5]: 0.07 | fractional inhibitory concentration index (FICI) [6]: 0.98

Cc1ccc(O)c(C(c2c[nH]c3ccccc23)c2c[nH]c3ccccc23)c1
MIC80 [1]: 23.2 µg/mL (≈ 65.9 µM) | MIC80 [2]: > 200 µg/mL | MIC80 [3]: 4.28 µg/mL | MIC80 [4]: 5.83 µg/mL | fractional inhibitory concentration index (FICI) [5]: 0.33 | fractional inhibitory concentration index (FICI) [6]: 0.02

Cc1ccc(C(c2c[nH]c3ccccc23)c2c[nH]c3ccccc23)c(O)c1
MIC80 [1]: > 200 µg/mL | MIC80 [2]: 37 µg/mL (≈ 105 µM) | MIC80 [3]: 3.67 µg/mL | MIC80 [4]: 5.75 µg/mL | fractional inhibitory concentration index (FICI) [5]: 0.14 | fractional inhibitory concentration index (FICI) [6]: 0.02

Oc1c(Cl)cc(Cl)cc1C(c1c[nH]c2ccccc12)c1c[nH]c2ccccc12
MIC80 [1]: > 200 µg/mL | MIC80 [2]: > 200 µg/mL | MIC80 [3]: 0.55 µg/mL | MIC80 [4]: 5.88 µg/mL | fractional inhibitory concentration index (FICI) [5]: 0.02 | fractional inhibitory concentration index (FICI) [6]: 0.02

Oc1c(Br)cccc1C(c1c[nH]c2ccccc12)c1c[nH]c2ccccc12
MIC80 [1]: > 200 µg/mL | MIC80 [2]: > 200 µg/mL | MIC80 [3]: 1.22 µg/mL | MIC80 [4]: 5.82 µg/mL | fractional inhibitory concentration index (FICI) [5]: 0.04 | fractional inhibitory concentration index (FICI) [6]: 0.02 | MIC80 [7]: > 200 µg/mL | MIC80 [8]: > 200 µg/mL | MIC80 [9]: > 200 µg/mL | MIC80 [10]: > 200 µg/mL | MIC80 [11]: > 200 µg/mL | MIC80 [12]: > 200 µg/mL | MIC80 [13]: > 200 µg/mL | MIC80 [14]: > 200 µg/mL | MIC80 [15]: 1.37 µg/mL | MIC80 [16]: 4.5 µg/mL | MIC80 [17]: 2.63 µg/mL | MIC80 [18]: 1.38 µg/mL | MIC80 [19]: 5.96 µg/mL | MIC80 [20]: 1.33 µg/mL | MIC80 [21]: 5.61 µg/mL | MIC80 [22]: 5.69 µg/mL | fractional inhibitory concentration index (FICI) [23]: 0.01 | fractional inhibitory concentration index (FICI) [24]: 0.02 | fractional inhibitory concentration index (FICI) [25]: 0.01 | fractional inhibitory concentration index (FICI) [26]: 0.01 | fractional inhibitory concentration index (FICI) [27]: 0.03 | fractional inhibitory concentration index (FICI) [28]: 0.01 | fractional inhibitory concentration index (FICI) [29]: 0.03 | fractional inhibitory concentration index (FICI) [30]: 0.03 | Activity [31]: Active | Activity [32]: Active | Activity [33]: Active | Activity [34]: Active | Activity [35]: Active | Activity [36]: Active | Activity [37]: Active | CC50 [38]: 32.7 µg/mL (≈ 78.5 µM) | CC50 [39]: 35.6 µg/mL (≈ 85.3 µM)

Oc1cc(F)ccc1C(c1c[nH]c2ccccc12)c1c[nH]c2ccccc12
MIC80 [1]: > 200 µg/mL | MIC80 [2]: > 200 µg/mL | MIC80 [3]: 15.5 µg/mL | MIC80 [4]: 7.4 µg/mL | fractional inhibitory concentration index (FICI) [5]: 0.58 | fractional inhibitory concentration index (FICI) [6]: 0.02

COc1ccc(C(c2c[nH]c3ccccc23)c2c[nH]c3ccccc23)c(O)c1
MIC80 [1]: 1.85 µg/mL (≈ 5.02 µM) | MIC80 [2]: 32.7 µg/mL (≈ 88.9 µM) | MIC80 [3]: 1.01 µg/mL | MIC80 [4]: 5.79 µg/mL | fractional inhibitory concentration index (FICI) [5]: 0.58 | fractional inhibitory concentration index (FICI) [6]: 0.18

OC(Cn1cncn1)(Cn1cncn1)c1ccc(F)cc1F [FLUCONAZOLE]
MIC80 [1]: 5.79 µg/mL (≈ 18.9 µM) | MIC80 [2]: > 200 µg/mL | MIC80 [7]: > 200 µg/mL | MIC80 [8]: > 200 µg/mL | MIC80 [9]: > 200 µg/mL | MIC80 [10]: > 200 µg/mL | MIC80 [11]: > 200 µg/mL | MIC80 [12]: > 200 µg/mL | MIC80 [13]: > 200 µg/mL | MIC80 [14]: > 200 µg/mL | Activity [40]: Active | CC50 [38]: 676 µg/mL (≈ 2210 µM) | CC50 [39]: > 1000 µg/mL

— ChEMBL document CHEMBL5131429, “Synthesis and antifungal evaluation of phenol-derived bis(indolyl)methanes combined with FLC against Candida albicans” (Bioorg Med Chem Lett, 2022)
